The record followed here is patent publication US20250109162A1, “FLEX-NUCLEOSIDE ANALOGUES, NOVEL THERAPEUTICS AGAINST VIRUSES” (UNIVERSITY OF MARYLAND, BALTIMORE COUNTY, priority 2022, published 2025).

Series [1] in a line: Cytotoxicity in HBV (Tavis) assay (Table 8). The format is cell-based.
The next series has as its system HBV. Put plainly: HBV (Tavis) EC50 (Table 8). The format is cell-based. The note with it: Hepatitis B virus.
The test system of the next series is HHV-6B, Z29. The series can be described thus: microbe, parasite or virus in culture. The class given is cell-based, human herpesvirus 6. The settings on record: Human betaherpesvirus 6, MOLT-3.
For the next series, the system named is EBOV (VP30, Huh). Put plainly: microbe, parasite or virus in culture. The class given is cell-based, Ebola Virus. The settings on record: Zaire ebolavirus.
The subject of series [2] is Epstein-Barr virus, strain Akata. The series can be described thus: microbe, parasite or virus in culture. The format is cell-based. The note with it: for EC90: read-out: EC90 - compound concentration that reduces viral replication by 90%.
For the next series, the system named is BK, Gardner. The series can be described thus: microbe, parasite or virus in culture. The format is cell-based, BK virus (aka Human polyomavirus 1). The note with it: Betapolyomavirus hominis.
The subject of the next series is Akata cells. The settings on record: human.
Series [3] relates to Ebola Virus, strain Zaire. The format is cell-based.
Series [4] deals with Chikungunya Virus, strain S27, ATCC VR-64. Put plainly: microbe, parasite or virus in culture. The format is cell-based.
The subject of a further series is Vero cells. The settings on record: African green monkey.
Another series deals with Enterovirus. The series can be described thus: microbe, parasite or virus in culture. The format is cell-based.
The test system of a further series is CHIKV. The series can be described thus: CHIKV IC50 (Table 8). The class given is cell-based. The settings on record: Chikungunya virus.
Another series relates to DENV2. Put plainly: DENV2 IC50 (Table 8). The class given is cell-based, Dengue Virus 2. The note with it: Dengue virus.
The test system of series [5] is MERS Coronavirus, strain EMC. The class given is cell-based.
Series [6] deals with Dengue Virus 2, strain New Guinea C. The class given is cell-based.
The test system of another series is HPV11 replicon. The format is cell-based, Human papillomavirus.
The mark [7] stands for this setting: human gammaherpesvirus 4, Akata.

The structures appear in SMILES notation. pEC50, pIC50: −log10 of the molar value. Several values for one entry are separate records, joined by “and”; a condition that tells them apart may be missing. Identical values can stand only once. Like-named read-outs stand apart in the source and are kept apart here. A value given as a limit tells only on which side of the number the result lay.

Consider `O=c1[nH]c(=O)n([C@@H]2C[C@@H](O)[C@H](CO)O2)cc1-c1cccs1` [CHK-02, 1-((2S,4R,5S)-4-hydroxy-5-(hydroxymethyl)tetrahydrofuran-2-yl)-5-(thiophen-2-yl)pyrimidine-2,4(1H,3H)-dione], for which the figures for the CC50 (in series [1]; in “in vitro”) were > 32 µM and > 150 µM, respectively. Also, the pEC50 with HBV is > 6.49; in the series with HHV-6B, Z29, 4.95; in the series with EBOV (VP30, Huh), 4.69; in series [2] (setting [7]), 4.97; in the series with BK, Gardner it was > 7.32.

`Cc1ccc(-c2cn([C@@H]3C[C@@H](O)[C@H](CO)O3)c(=O)[nH]c2=O)s1` [CHK-03, 1-((2S,4R,5S)-4-hydroxy-5-(hydroxymethyl)tetrahydrofuran-2-yl)-5-(5-methylthiophen-2-yl)pyrimidine-2,4(1H,3H)-dione]: in the series on Akata cells, the CC50 is > 100 µM.

Consider `Nc1nc(=O)n([C@@H]2C[C@@H](O)[C@H](CO)O2)cc1-c1ccco1` [CHK-05, 4-amino-5-(furan-2-yl)-1-((2S,4R,5S)-4-hydroxy-5-(hydroxymethyl)tetrahydrofuran-2-yl)pyrimidin-2(1H)-one], for which the CC50 in the series with Akata cells, in the series on Huh7 cells (human) and in the series on Vero cells was > 100 µM throughout. In addition, the EC90 in [2] (setting [7]) was > 100 µM. Further, the pEC50 in series [3] is 4.74; in series [4], < 4.38; in series [4] (Chikungunya virus), < 4.17; with Enterovirus, 4.62.

Usually pIC50 stands for −log10 of the IC50, conventionally taken in molar units. In the series with CHIKV, `Nc1nc(=O)n([C@@H]2C[C@@H](O)[C@H](CO)O2)cc1-c1cccs1` [CHK-06, 4-amino-1-((2S,4R,5S)-4-hydroxy-5-(hydroxymethyl)tetrahydrofuran-2-yl)-5-(thiophen-2-yl)pyrimidin-2(1H)-one] had a negative logarithm of the IC50 (pIC50) of 4.12.

`Cc1ccc(-c2cn([C@@H]3C[C@@H](O)[C@H](CO)O3)c(=O)nc2N)o1` [CHK-08, 4-amino-1-((2S,4R,5S)-4-hydroxy-5-(hydroxymethyl)tetrahydrofuran-2-yl)-5-(5-methylfuran-2-yl)pyrimidin-2(1H)-one] gave a negative logarithm of the IC50 (pIC50) with DENV2 of 4.13.

On to `Nc1ccn(C[C@@H](CO)OCP(=O)(O)O)c(=O)n1` [Cidofovir, reference compound], for which the pEC50 in series [2] (read-out: EC50 - compound concentration that reduces viral replication by 50%) was 5.23. The EC90 in series [2] is 73.5 µM.

Broadly, the EC50 is the midpoint of the concentration-response curve. For the compound `O=c1nc(NO)ccn1[C@@H]1O[C@H](CO)[C@@H](O)[C@H]1O` [EIDD-1931], the CC50 was >10 µg/mL in the series with Vero 76 cells and >100 µg/mL with HVero 76 cells. For the same compound, the EC50 in [5] was 0.036 µg/mL and 0.034 µg/mL.

`NC(=O)c1nc(F)c[nH]c1=O` [Favipiravir, reference compound]: the CC50 in the series with Vero cells was > 1000 µM.

Take `C#C[C@@]1(O)[C@H](O)[C@@H](CO)O[C@H]1n1ccc2c(N)ncnc21` [NITD008]: the pEC50 in series [6] is 6.44 and 6.37. Moreover, the CC50 in the series with Huh7 cells was > 100 µM.

For the compound `Nc1nc2c(ncn2CCOCP(=O)(O)O)c(=O)[nH]1` [PMEG], in the series with HPV11 replicon, the pEC50 was 5.04 to 5.70.
